From publication PMC9516332 (Frontiers in Oncology, 2022)
Read-outs that look alike come from different tables or passages of the source.

Legend:
[1] = target: T1, panel of 255 wild-type kinases (Homo sapiens, UniProt Q8IW41); test: Kinase panel profiling at 1 µmol/L (MSA or IMAP), percentage inhibition; format: biochemical; conditions: MAPKAPK5; 1 µmol/L single concentration; read-out: %-inhibition, MAPKAPK5
T1 sequence (Q8IW41 1-473): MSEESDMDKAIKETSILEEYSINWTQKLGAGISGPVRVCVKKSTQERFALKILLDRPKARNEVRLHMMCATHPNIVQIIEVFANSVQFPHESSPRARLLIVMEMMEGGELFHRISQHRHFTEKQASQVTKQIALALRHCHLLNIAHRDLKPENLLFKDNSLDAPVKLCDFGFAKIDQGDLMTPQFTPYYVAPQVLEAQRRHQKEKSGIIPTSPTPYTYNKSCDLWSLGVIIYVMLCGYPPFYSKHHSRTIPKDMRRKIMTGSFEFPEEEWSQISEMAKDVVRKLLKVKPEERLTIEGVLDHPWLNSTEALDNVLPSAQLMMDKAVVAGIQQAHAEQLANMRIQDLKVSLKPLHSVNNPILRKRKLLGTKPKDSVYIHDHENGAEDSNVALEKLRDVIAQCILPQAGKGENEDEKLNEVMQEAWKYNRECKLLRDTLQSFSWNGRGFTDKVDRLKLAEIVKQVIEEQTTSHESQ

[2] = target: panel of 255 wild-type kinases (Homo sapiens, UniProt P45983); test: as above; format: biochemical; conditions: kinase JNK1; 1 µmol/L single concentration; read-out: %-inhibition at 1 µmol/L, JNK1
[3] = tested on: 134 cancer cell lines; test: Cell viability assay (ATPlite, 72 hours), IC50 on cancer cell line panel

C[C@H]1Oc2cc(cnc2N)-c2c(nn(C)c2C#N)CN(C)C(=O)c2ccc(F)cc21 [lorlatinib]
inhibition at 1 µM [1]: 2.32% | inhibition at 1 µM [2]: -0.746% | IC50 ([3]; HEC-6, read-out: IC50 in cell proliferation assay): > 31.6 µM | IC50 ([3]; Homo sapiens, 769-P, read-out: IC50 in cell proliferation assay): > 31.6 µM | IC50 ([3]; Homo sapiens, 786-0, read-out: IC50 in cell proliferation assay): > 31.6 µM | IC50 ([3]; Homo sapiens, A 172, read-out: IC50 in cell proliferation assay): > 31.6 µM | IC50 ([3]; Homo sapiens, A204, read-out: IC50 in cell proliferation assay): > 31.6 µM | IC50 ([3]; Homo sapiens, A498, read-out: IC50 in cell proliferation assay): > 31.6 µM | IC50 ([3]; Homo sapiens, A549, read-out: IC50 in cell proliferation assay): 2.3 µM | IC50 ([3]; Homo sapiens, A704, read-out: IC50 in cell proliferation assay): > 31.6 µM | IC50 ([3]; Homo sapiens, A-375, read-out: IC50 in cell proliferation assay): 18.8 µM | IC50 ([3]; Homo sapiens, A-427, read-out: IC50 in cell proliferation assay): 27.4 µM | IC50 ([3]; Homo sapiens, ACHN, read-out: IC50 in cell proliferation assay): > 31.6 µM | IC50 ([3]; Homo sapiens, AN3-CA, read-out: IC50 in cell proliferation assay): > 31.6 µM | IC50 ([3]; Homo sapiens, ASPC1, read-out: IC50 in cell proliferation assay): 28.2 µM | IC50 ([3]; Homo sapiens, AU565, read-out: IC50 in cell proliferation assay): > 31.6 µM | IC50 ([3]; Homo sapiens, BT-20, read-out: IC50 in cell proliferation assay): > 31.6 µM | IC50 ([3]; Homo sapiens, BT-474, read-out: IC50 in cell proliferation assay): > 31.6 µM | IC50 ([3]; Homo sapiens, BT-549, read-out: IC50 in cell proliferation assay): > 31.6 µM | IC50 ([3]; Homo sapiens, BXPC-3, read-out: IC50 in cell proliferation assay): 0.049 µM | IC50 ([3]; Homo sapiens, C-33-A, read-out: IC50 in cell proliferation assay): > 31.6 µM | IC50 ([3]; Homo sapiens, CAL-27, read-out: IC50 in cell proliferation assay): > 31.6 µM | IC50 ([3]; Homo sapiens, CCF-STTG1, read-out: IC50 in cell proliferation assay): > 31.6 µM | IC50 ([3]; Homo sapiens, CCRF-CEM, read-out: IC50 in cell proliferation assay): > 31.6 µM | IC50 ([3]; Homo sapiens, COLO 205, read-out: IC50 in cell proliferation assay): 11.9 µM | IC50 ([3]; Homo sapiens, COLO-829, read-out: IC50 in cell proliferation assay): > 31.6 µM | IC50 ([3]; Homo sapiens, DLD-1, read-out: IC50 in cell proliferation assay): > 31.6 µM | IC50 ([3]; Homo sapiens, DU-145, read-out: IC50 in cell proliferation assay): 25.9 µM | IC50 ([3]; Homo sapiens, DU-4475, read-out: IC50 in cell proliferation assay): 25.9 µM | IC50 ([3]; Homo sapiens, Daoy, read-out: IC50 in cell proliferation assay): > 31.6 µM | IC50 ([3]; Homo sapiens, DoTc2-4510, read-out: IC50 in cell proliferation assay): 0.024 µM | IC50 ([3]; Homo sapiens, EOL1, read-out: IC50 in cell proliferation assay): 9.05 µM | IC50 ([3]; Homo sapiens, FaDu, read-out: IC50 in cell proliferation assay): > 31.6 µM | IC50 ([3]; Homo sapiens, G-361, read-out: IC50 in cell proliferation assay): > 31.6 µM | IC50 ([3]; Homo sapiens, HCC827, read-out: IC50 in cell proliferation assay): 17.1 µM | IC50 ([3]; Homo sapiens, HCC4006, read-out: IC50 in cell proliferation assay): 17.8 µM | IC50 ([3]; Homo sapiens, HCT-15, read-out: IC50 in cell proliferation assay): > 31.6 µM | IC50 ([3]; Homo sapiens, HCT-116, read-out: IC50 in cell proliferation assay): 23.8 µM | IC50 ([3]; Homo sapiens, HEC-1, read-out: IC50 in cell proliferation assay): 9.24 µM | IC50 ([3]; Homo sapiens, HEC-1B, read-out: IC50 in cell proliferation assay): > 31.6 µM | IC50 ([3]; Homo sapiens, HL-60, read-out: IC50 in cell proliferation assay): 28.1 µM | IC50 ([3]; Homo sapiens, HT, read-out: IC50 in cell proliferation assay): > 31.6 µM | IC50 ([3]; Homo sapiens, HT-1080, read-out: IC50 in cell proliferation assay): > 31.6 µM | IC50 ([3]; Homo sapiens, Hs746T, read-out: IC50 in cell proliferation assay): 9.43 µM | IC50 ([3]; Homo sapiens, Hs-578T, read-out: IC50 in cell proliferation assay): > 31.6 µM | IC50 ([3]; Homo sapiens, HuTu80, read-out: IC50 in cell proliferation assay): 7.5 µM | IC50 ([3]; Homo sapiens, J82, read-out: IC50 in cell proliferation assay): > 31.6 µM | IC50 ([3]; Homo sapiens, Jurkat E6.1, read-out: IC50 in cell proliferation assay): > 31.6 µM | IC50 ([3]; Homo sapiens, K562, read-out: IC50 in cell proliferation assay): 9.61 µM | IC50 ([3]; Homo sapiens, KATO III, read-out: IC50 in cell proliferation assay): > 31.6 µM | IC50 ([3]; Homo sapiens, KG-1, read-out: IC50 in cell proliferation assay): 9.21 µM | IC50 ([3]; Homo sapiens, KLE, read-out: IC50 in cell proliferation assay): > 31.6 µM | IC50 ([3]; Homo sapiens, KMS-11, read-out: IC50 in cell proliferation assay): 17.7 µM | IC50 ([3]; Homo sapiens, KU812, read-out: IC50 in cell proliferation assay): > 31.6 µM | IC50 ([3]; Homo sapiens, Kasumi 1, read-out: IC50 in cell proliferation assay): > 31.6 µM | IC50 ([3]; Homo sapiens, LC-2-ad, read-out: IC50 in cell proliferation assay): 20.4 µM | IC50 ([3]; Homo sapiens, LNCaP-Clone-FGC, read-out: IC50 in cell proliferation assay): > 31.6 µM | IC50 ([3]; Homo sapiens, LS174T, read-out: IC50 in cell proliferation assay): 14.2 µM | IC50 ([3]; Homo sapiens, LS-411N, read-out: IC50 in cell proliferation assay): 23.6 µM
